Drawing on patent publication US20120202794A1 (priority 2011, published 2012), this text covers EC90 and CC90 for 43 molecules.

One data set has as its system HCV Replicon 1b. Briefly: HCV inhibition assay, HCV replicon 1b (Clone A or ET-lunet cells; RT-PCR or luciferase reporter). It counts as cell-based. The following applies: Hepatitis C virus, 96 h, HCV replicon 1b; 4 days incubation; read-out: Replicon 1b potency EC90. Here is the method:
HCV inhibition assay. Clone A or ET-lunet cells were seeded at a density of 1500 or 3000 cells per well in a 96-well plate, respectively. Test compounds serially diluted in culture medium without G418 were added to cells so that the final DMSO concentration was 0.5%. Plates were incubated at 37° C. in a 5% CO2 atmosphere for 4 days. Inhibition of HCV RNA replication was determined by real time PCR (RT-PCR) or by measuring the levels of luminescence expressed via the luciferase reporter gene encoded within the ET replicon. Briefly, for the RT-PCR assay, total RNA was extracted using the RNeasy-96 kit as recommended by the manufacturer (Qiagen, Valencia, Calif.), reversed transcribed into cDNA, and amplified using primer and probe mix for HCV 5′-NTR RNA and human ribosomal RNA (rRNA) in a one-step RT-PCR reaction as described previously (50). A relative quantification method was used to determine the extent of inhibition. The threshold cycle (Ct) of rRNA was subtracted from the Ct of HCV RNA (ΔCt). The average ΔCt of the DMSO cell controls was then subtracted from the ΔCt of the compound treated sample (ΔΔCt). Percent inhibition was determined by using the following equation: %=(1−(2^−ΔΔC^t))×100. For the luciferase-based replicon assay, luminescence was measured by using a Victor3 plate reader (Perkin-Elmer, Boston, Mass.) following the addition of Bright-Glo reagent as recommended by the manufacturer (Promega, Madison, Wis.). Percent inhibition of HCV replication was determined by comparing the change in luminescence of the drug treated wells versus the DMSO cell controls. EC50 and EC90 values, the concentrations at which 50% and 90% inhibition were achieved, were determined using the GraphPad Prism software (San Diego, Calif.).
For orientation: A replicon is a self-replicating genome or part of one, used to study replication in cells.

Data set [1] in a line: Cell cytotoxicity assay (MTS), CC90 as reported in Table 1, cell line not stated. It counts as cell-based. The following applies: human; cell line not given. Here is the method: Cell cytotoxicity assays. Each compound (serially diluted from 100 μM) was added to Huh7 (2×10^3 cells/well), HepG2 (2×10^3 cells/well), BxPC3 (2×10^3 cells/well), or CEM (5×10^3 cells/well) cells and allowed to incubate for 8 days at 37° C. A medium only control was used to determine the minimum absorbance value […]. At the end of the growth period, MTS dye from the CellTiter 96 Aqueous One Solution Cell Proliferation Assay kit (Promega) was added to each well and the plate was incubated for an additional 2 hours. The absorbance at 490 nm was read with a Victor3 plate reader (Perkin Elmer) using the medium only control wells as blanks. The 90% inhibition value (CC90) was determined by comparing the absorbance in wells containing cells and test compound to untreated cell control wells.

As for `CCc1cc(C(=O)N2C[C@H](CC(C)C)NC(=O)[C@@H]2CC(C)C)no1` [Compound 107], the EC90 (in general, the concentration needed for an effect of 90%) in the data set with HCV Replicon 1b came out at 8.41 µM. The molecule further displayed a CC90 at 8 days in data set [1] of more than 10 µM.
As to `CC(C)C[C@H]1CN(C(=O)c2cc(-c3ccccc3)on2)[C@@H](CC(C)C)C(=O)N1` [Compound 108], the concentration for an effect of 90% (EC90) with HCV Replicon 1b is 0.52 µM. The molecule also came in with a CC90 at 8 days in data set [1] of more than 10 µM.
The corresponding values for `CC(C)C[C@H]1CN(C(=O)c2cc(-c3cccs3)on2)[C@@H](CC(C)C)C(=O)N1` [Compound 109] are 0.54 µM and more than 10 µM.
The corresponding values for `CC(C)C[C@H]1C(=O)N[C@@H](c2ccccc2)CN1C(=O)c1cc(-c2cccs2)on1` [Compound 110] are 0.59 µM and more than 10 µM.
On to `CC(C)C[C@H]1C(=O)N[C@@H](C(C)C)CN1C(=O)c1cc(-c2cccs2)on1` [Compound 111], for which the concentration for an effect of 90% (EC90) with HCV Replicon 1b was found to be 0.8 µM. In data set [1], this molecule had a CC90 at 8 days of more than 10 µM.
The matching figures for `CC(C)C[C@H]1CN(C(=O)c2cc(-c3ccc(Cl)s3)on2)[C@@H](CC(C)C)C(=O)N1` [Compound 112]: 0.95 µM and more than 10 µM.
The matching figures for `CC(C)C[C@H]1CN(C(=O)C#Cc2ccc(F)cc2)[C@@H](CC(C)C)C(=O)N1` [Compound 113]: 3.4 µM and more than 10 µM.
The matching figures for `CC(C)C[C@H]1CN(C(=O)C#Cc2ccccc2)[C@@H](CC(C)C)C(=O)N1` [Compound 114]: 4.08 µM and more than 10 µM.
Take `Cc1ccc(C#CC(=O)N2C[C@H](CC(C)C)NC(=O)[C@@H]2CC(C)C)cc1` [Compound 115]: the EC90 with HCV Replicon 1b came out at 5.01 µM. The molecule also had a CC90 at 8 days in data set [1] of more than 10 µM.
`CC(C)C[C@H]1CN(C(=O)C#Cc2ccc(F)c(F)c2)[C@@H](CC(C)C)C(=O)N1` [Compound 116]: the EC90 with HCV Replicon 1b is 9.65 µM. Further, the CC90 at 8 days in data set [1] is more than 10 µM.
The matching figures for `CC(C)C[C@H]1CN(C(=O)C#Cc2ccc(F)cc2F)[C@@H](CC(C)C)C(=O)N1` [Compound 117]: 2.66 µM and more than 10 µM.
The matching figures for `COc1ccc(C#CC(=O)N2C[C@H](CC(C)C)NC(=O)[C@@H]2CC(C)C)cc1` [Compound 118]: 2.96 µM and more than 10 µM.
For the molecule `CC(C)C[C@H]1CN(C(=O)C#Cc2ccc(Cl)cc2F)[C@@H](CC(C)C)C(=O)N1` [Compound 119], the 90% effect concentration (EC90) in the data set with HCV Replicon 1b is 6.2 µM. In data set [1], the CC90 at 8 days is more than 10 µM.
The matching figures for `CC(C)C[C@H]1CN(C(=O)C#Cc2ccc(Cl)cc2)[C@@H](CC(C)C)C(=O)N1` [Compound 120]: 9.16 µM and more than 10 µM.
On to `CC(C)C[C@H]1CN(C(=O)C#Cc2cc(F)c(F)c(F)c2)[C@@H](CC(C)C)C(=O)N1` [Compound 121], for which the EC90 in the data set with HCV Replicon 1b came to 3.23 µM. Moreover, the CC90 at 8 days in data set [1] was more than 10 µM.
The corresponding values for `CC(C)C[C@H]1CN(C(=O)C#Cc2ccc(C(F)(F)F)cc2)[C@@H](CC(C)C)C(=O)N1` [Compound 122] are 7.54 µM and more than 10 µM.
The matching figures for `CC(C)C[C@H]1CN(C(=O)c2cc(-c3ccc(F)c(F)c3)on2)[C@@H](CC(C)C)C(=O)N1` [Compound 123]: 0.97 µM and more than 10 µM.
The matching figures for `CC(C)C[C@H]1CN(C(=O)c2cc(-c3ccc(F)cc3)on2)[C@@H](CC(C)C)C(=O)N1` [Compound 124]: 0.11 µM and more than 10 µM.
On to `CC(C)C[C@H]1CN(C(=O)c2cc(-c3ccc(Cl)cc3)on2)[C@@H](CC(C)C)C(=O)N1` [Compound 125], for which the EC90 with HCV Replicon 1b is 0.26 µM. In addition, in data set [1], the CC90 at 8 days is more than 10 µM.
As to `Cc1ccc(-c2cc(C(=O)N3C[C@H](CC(C)C)NC(=O)[C@@H]3CC(C)C)no2)cc1` [Compound 126], in the data set with HCV Replicon 1b, the concentration for an effect of 90% (EC90) amounted to 1.66 µM. In data set [1], this molecule showed a CC90 at 8 days of more than 10 µM.
The corresponding values for `COc1ccc(-c2cc(C(=O)N3C[C@H](CC(C)C)NC(=O)[C@@H]3CC(C)C)no2)cc1` [Compound 127] are 1.14 µM and more than 10 µM.
As to `CC(C)C[C@H]1CN(C(=O)c2cc(-c3cccc(F)c3)on2)[C@@H](CC(C)C)C(=O)N1` [Compound 128], the EC90 in the data set with HCV Replicon 1b is 0.84 µM. The CC90 at 8 days in data set [1] was more than 10 µM.
On to `CC(C)C[C@H]1CN(C(=O)c2cc(-c3cccc(Cl)c3)on2)[C@@H](CC(C)C)C(=O)N1` [Compound 129], for which, in the data set with HCV Replicon 1b, the 90% effect concentration (EC90) stood at 2.93 µM. The molecule also registered a CC90 at 8 days in data set [1] of more than 10 µM.
The corresponding values for `COc1cccc(-c2cc(C(=O)N3C[C@H](CC(C)C)NC(=O)[C@@H]3CC(C)C)no2)c1` [Compound 130] are 5.75 µM and more than 10 µM.
The corresponding values for `COc1ccccc1-c1cc(C(=O)N2C[C@H](CC(C)C)NC(=O)[C@@H]2CC(C)C)no1` [Compound 131] are 3.49 µM and more than 10 µM.
The matching figures for `CC(C)C[C@H]1CN(C(=O)c2cc(-c3ccc(C(C)(C)C)cc3)on2)[C@@H](CC(C)C)C(=O)N1` [Compound 132]: 4.33 µM and more than 10 µM.
For `CC(C)C[C@H]1CN(C(=O)c2cc(-c3ccc(F)cc3F)on2)[C@@H](CC(C)C)C(=O)N1` [Compound 133], the 90% effect concentration (EC90) in the data set with HCV Replicon 1b is 0.6 µM. Besides, in data set [1], the CC90 at 8 days was more than 10 µM.
The matching figures for `CC(C)C[C@H]1CN(C(=O)c2cc(-c3ccc(Cl)c(F)c3)on2)[C@@H](CC(C)C)C(=O)N1` [Compound 134]: 0.89 µM and more than 10 µM.
For the molecule `CC(C)C[C@H]1CN(C(=O)c2cc(-c3ccc(Br)cc3)on2)[C@@H](CC(C)C)C(=O)N1` [Compound 135], in the data set with HCV Replicon 1b, the EC90 was determined as 0.47 µM. The molecule further displayed a CC90 at 8 days in data set [1] of more than 10 µM.
The corresponding values for `CC(C)C[C@H]1CN(C(=O)c2cc(-c3ccc(C#N)cc3)on2)[C@@H](CC(C)C)C(=O)N1` [Compound 136] are 1.53 µM and more than 10 µM.
The corresponding values for `CC(C)C[C@H]1C(=O)N[C@@H](C2CCCC2)CN1C(=O)c1cc(-c2ccc(C#N)cc2)on1` [Compound 137] are 0.8 µM and more than 10 µM.
The matching figures for `CC(C)C[C@H]1CN(C(=O)c2cc(-c3cccc(OC(F)(F)F)c3)on2)[C@@H](CC(C)C)C(=O)N1` [Compound 138]: 7.04 µM and more than 10 µM.
As to `CC(C)C[C@H]1CN(C(=O)c2cc(-c3ccc(C(=O)N(C)C)cc3)on2)[C@@H](CC(C)C)C(=O)N1` [Compound 139], the EC90 in the data set on HCV Replicon 1b is more than 10 µM. In addition, in data set [1], the CC90 at 8 days is more than 10 µM.
Regarding `CC(C)C[C@H]1CN(C(=O)c2cc(-c3ccc(N(C)C)cc3)on2)[C@@H](CC(C)C)C(=O)N1` [Compound 140], the EC90 with HCV Replicon 1b was more than 10 µM. The molecule also gave a CC90 at 8 days in data set [1] of more than 10 µM.
With `CC(C)C[C@H]1CN(C(=O)c2cc(-c3ccc(F)c(Cl)c3)on2)[C@@H](CC(C)C)C(=O)N1` [Compound 141], the EC90 in the data set with HCV Replicon 1b was determined as 1.78 µM. The CC90 at 8 days in data set [1] is more than 10 µM.
On to `CC(C)C[C@H]1CN(C(=O)c2cc(-c3ccccc3F)on2)[C@@H](CC(C)C)C(=O)N1` [Compound 142], for which the EC90 in the data set with HCV Replicon 1b is 2.01 µM. The molecule also showed a CC90 at 8 days in data set [1] of more than 10 µM.
The corresponding values for `CC(C)C[C@H]1CN(C(=O)c2cc(-c3ccc(Cl)cc3F)on2)[C@@H](CC(C)C)C(=O)N1` [Compound 143] are 1.21 µM and more than 10 µM.
`CC(C)C[C@H]1CN(C(=O)c2cc(-c3ccc(F)cc3)no2)[C@@H](CC(C)C)C(=O)N1` [Compound 144]: in the data set on HCV Replicon 1b, the EC90 was 0.33 µM. For the same molecule, the CC90 at 8 days in data set [1] was more than 10 µM.
The matching figures for `CC(C)C[C@H]1C(=O)N[C@@H](c2ccccc2)CN1C(=O)c1cc(-c2ccc(F)cc2)no1` [Compound 145]: 0.23 µM and more than 10 µM.
The matching figures for `CC(C)C[C@H]1C(=O)N[C@@H](C(C)C)CN1C(=O)c1cc(-c2ccc(F)cc2)no1` [Compound 146]: 0.73 µM and more than 10 µM.
The matching figures for `CSC[C@H]1CN(C(=O)c2cc(-c3ccc(F)cc3)no2)[C@@H](CC(C)C)C(=O)N1` [Compound 147]: 1.27 µM and more than 10 µM.
As to `CC(C)C[C@H]1CN(C(=O)c2nc(-c3ccc(F)cc3)no2)[C@@H](CC(C)C)C(=O)N1` [Compound 148], in the data set with HCV Replicon 1b, the 90% effect concentration (EC90) is 0.37 µM. In data set [1], the CC90 at 8 days is more than 10 µM.
The corresponding values for `CCC[C@H]1CN(C(=O)c2nc(-c3ccc(F)cc3)no2)[C@@H](CC(C)C)C(=O)N1` [Compound 149] are 0.05 µM and more than 10 µM.
